Assay results as given in ChEMBL document CHEMBL5727813, “Inhibitors of lysine gingipain” (2020).

Assay: Inhibition of Lysine Gingipain: The capacities of compounds of the present invention to inhibit the activity of lysine gingipain were measured in a fluorogenic assay similar to those described in Barret Biochemical Journal. 1980, 187(3), 909. The specific assay conditions were as follows. Buffer: pH=7.5, 100 mM Tris-HCl, 75 mM NaCl, 2.5 mM CaCl2, 10 mM cysteine, 1% DMSO after all additions. Protein: 0.1 nM Kgp, isolated from culture of Porphyromonas gingivalis, as described in Pike et al. J. Biol. Chem. 1994, 269(1), 406, and Potempa and Nguyen. Current Protocols in Protein Scienc. 2007, 21.20.1-21.20.27. Fluorogenic substrate: 10 uM Z-His-Glu-Lys-MCA. Time=90 minutes. Temperature=37° C. Each compound: 10 concentrations, starting at either 100 uM or 100 nM, with lower concentrations generated by serial 3-fold dilutions. By testing a range of concentrations for each compound, the concentration required to inhibit the activity of lysine gingipain by 50% (the “IC50”) was determined. Under the described assay conditions, signal-to-noise was excellent, and Z factor was greater than 0.6.

NCCCC[C@H](NC(=O)C1CCCC1)C(=O)c1ccccn1
IC50: > 250 nM
